Reference: patent publication US9512142B2, “Tricyclic triazolic compounds” (LABORATORIOS DEL DR. ESTEVE S.A., priority 2013, dated 2016)
Values after ≈ are worked out from the molar mass of the structure shown.

Experiment: Kinetic solubility
Type: physicochemical
Conditions: aqueous buffer, kinetic from dmso stock; buffered aqueous solution at pH=7.4, 10 μL of 10 mM DMSO solution in 1 mL, stirred 4 hours, supernatant by liquid chromatography; read-out: Kin. Solub.
Procedure: To a buffered aqueous solution at pH=7.4 (1 mL), a 10 mM DMSO solution of the test compound (10 μL) was added and the mixture stirred for 4 hours. After centrifugation, the compound concentration in the supernatant was determined by liquid chromatography by fitting in a calibration curve of the compound.

SMILES	solubility at 4 h [µM]
Cl.Fc1ccccc1-c1nnn2c1CO[C@@H]1CN(C3CCOCC3)C[C@H]12 [Example 7, (5aR,8aR)-3-(2-fluorophenyl)-7-(tetrahydro-2H-pyran-4-yl)-4,5a,6,7,8,8a-hexahydropyrrolo[3,4-b][1,2,3]triazolo[1,5-d][1,4]oxazine hydrochloride]	> 10
Cl.Fc1ccc(CN2C[C@@H]3OCc4c(-c5ccccn5)nnn4[C@H]3C2)cc1 [Example 25, (5aS,8aS)-7-(4-fluorobenzyl)-3-(pyridin-2-yl)-4,5a,6,7,8,8a-hexahydropyrrolo[3,4-b][1,2,3]triazolo[1,5-d][1,4]oxazine hydrochloride]	> 10
Cl.Fc1ccccc1-c1nnn2c1CO[C@@H]1CN(Cc3cccnc3)C[C@H]12 [Example 1, (5aR,8aR)-3-(2-fluorophenyl)-7-(pyridin-3-ylmethyl)-4,5a,6,7,8,8a-hexahydropyrrolo[3,4-b][1,2,3]triazolo[1,5-d][1,4]oxazine hydrochloride]	> 20
Cl.Fc1ccccc1-c1nnn2c1CO[C@@H]1CN(Cc3ccccn3)C[C@H]12 (racemic) [Example 3, (5aRS,8aRS)-3-(2-fluorophenyl)-7-(pyridin-2-ylmethyl)-4,5a,6,7,8,8a-hexahydropyrrolo[3,4-b][1,2,3]triazolo[1,5-d][1,4]oxazine hydrochloride]	> 10
Cl.Fc1ccc(CN2C[C@@H]3[C@@H](C2)OCc2c(C4CCOCC4)nnn23)cc1 [Example 64, (5aR,8aR)-7-(4-fluorobenzyl)-3-(tetrahydro-2H-pyran-4-yl)-4,5a,6,7,8,8a-hexahydropyrrolo[3,4-b][1,2,3]triazolo[1,5-d][1,4]oxazine hydrochloride]	> 10
Cl.Clc1ccc(-c2nnn3c2CO[C@@H]2CN(CC4CCOCC4)C[C@H]23)c(Cl)c1 [Example 44, (5aR,8aR)-3-(2,4-dichlorophenyl)-7-((tetrahydro-2H-pyran-4-yl)methyl)-4,5a,6,7,8,8a-hexahydropyrrolo[3,4-b][1,2,3]triazolo[1,5-d][1,4]oxazine hydrochloride]	> 10

Same assay, conditions: buffered aqueous solution at pH=7.4, 10 μL of 10 mM DMSO solution in 1 mL, stirred 4 hours, supernatant by liquid chromatography; read-out: Kin. Solub.

SMILES	solubility at 4 h [µM]
Fc1ccc(CN2C[C@@H]3[C@@H](C2)OCc2c(-c4cccc(F)c4)nnn23)cc1 [drawing 121, reference compound]	3.9 (≈ 1.44 µg/mL)

Same assay, conditions: buffered aqueous solution, pH 7.4, aqueous buffer, kinetic from dmso stock, buffered aqueous solution at pH=7.4, 10 μL of 10 mM DMSO solution in 1 mL, stirred 4 hours, supernatant by liquid chromatography; read-out: Kin. Solub.

SMILES	solubility at 4 h [µM]
FC(F)(F)c1ccc(-c2nnn3c2COC2CN(Cc4ccccc4)C[C@H]23)cc1 (stereo partly shown) [reference compound]	< 0.4
Fc1ccc(-c2nnn3c2CO[C@@H]2CN(Cc4ccccc4)C[C@H]23)cc1 [reference compound]	1.82 (≈ 0.638 µg/mL)
Clc1ccc(-c2nnn3c2COC2CN(Cc4ccccc4)C[C@H]23)cc1 (stereo partly shown) [reference compound]	0.93 (≈ 0.341 µg/mL)
Clc1cc(Cl)nc(N2CC3OCc4c(-c5ccccc5)nnn4[C@@H]3C2)n1 (stereo partly shown) [reference compound]	< 1
Fc1ccc(CN2C[C@@H]3OCc4c(-c5ccccc5F)nnn4[C@H]3C2)cc1 [reference compound]	3.08 (≈ 1.13 µg/mL)
Cl.Fc1ccc(CN2C[C@@H]3OCc4c(C5CCOCC5)nnn4[C@H]3C2)cc1 [Example 65, (5aS,8aS)-7-(4-fluorobenzyl)-3-(tetrahydro-2H-pyran-4-yl)-4,5a,6,7,8,8a-hexahydropyrrolo[3,4-b][1,2,3]triazolo[1,5-d][1,4]oxazine hydrochloride]	> 10
Cl.Fc1ccc(-c2nnn3c2CO[C@@H]2CN(C4CCOCC4)C[C@H]23)c(F)c1 [Example 28, (5aR,8aR)-3-(2,4-difluorophenyl)-7-(tetrahydro-2H-pyran-4-yl)-4,5a,6,7,8,8a-hexahydropyrrolo[3,4-b][1,2,3]triazolo[1,5-d][1,4]oxazine hydrochloride]	> 10
Cl.Fc1ccc(-c2nnn3c2CO[C@@H]2CN(C4CCOCC4)C[C@H]23)cc1 [Example 5, (5aR,8aR)-3-(4-fluorophenyl)-7-(tetrahydro-2H-pyran-4-yl)-4,5a,6,7,8,8a-hexahydropyrrolo[3,4-b][1,2,3]triazolo[1,5-d][1,4]oxazine hydrochloride]	> 10
CCOc1ccc(CN2C[C@@H]3OCc4c(-c5ccccc5F)nnn4[C@H]3C2)cn1.Cl [Example 20, (5aS,8aS)-7-((6-ethoxypyridin-3-yl)methyl)-3-(2-fluorophenyl)-4,5a,6,7,8,8a-hexahydropyrrolo[3,4-b][1,2,3]triazolo[1,5-d][1,4]oxazine hydrochloride]	> 10
Fc1ccc(CN2C[C@@H]3[C@@H](C2)OCc2c(-c4cccc(F)c4)nnn23)cc1 [drawing 113, reference compound]	3.4 (≈ 1.25 µg/mL)
Clc1ccc(-c2nnn3c2CO[C@@H]2CN(Cc4ccccc4)C[C@H]23)c(Cl)c1 [reference compound]	7.8 (≈ 3.13 µg/mL)
Cl.Fc1ccc(-c2nnn3c2CO[C@H]2CN(CCC4CCOCC4)C[C@@H]23)c(F)c1 [Example 41, (5aS,8aS)-3-(2,4-difluorophenyl)-7-(2-(tetrahydro-2H-pyran-4-yl)ethyl)-4,5a,6,7,8,8a-hexahydropyrrolo[3,4-b][1,2,3]triazolo[1,5-d][1,4]oxazine hydrochloride]	> 10
Cl.Clc1ccc(-c2nnn3c2CO[C@H]2CN(CC4CCOCC4)C[C@@H]23)c(Cl)c1 [Example 45, (5aS,8aS)-3-(2,4-dichlorophenyl)-7-((tetrahydro-2H-pyran-4-yl)methyl)-4,5a,6,7,8,8a-hexahydropyrrolo[3,4-b][1,2,3]triazolo[1,5-d][1,4]oxazine hydrochloride]	> 10
Cl.Fc1ccccc1-c1nnn2c1CO[C@H]1CN(C3CCOCC3)C[C@@H]12 [Example 6, (5aS,8aS)-3-(2-fluorophenyl)-7-(tetrahydro-2H-pyran-4-yl)-4,5a,6,7,8,8a-hexahydropyrrolo[3,4-b][1,2,3]triazolo[1,5-d][1,4]oxazine hydrochloride]	> 10
Cl.Fc1ccc(CN2C[C@@H]3[C@@H](C2)OCc2c(-c4ccccn4)nnn23)cc1 [Example 24, (5aR,8aR)-7-(4-fluorobenzyl)-3-(pyridin-2-yl)-4,5a,6,7,8,8a-hexahydropyrrolo[3,4-b][1,2,3]triazolo[1,5-d][1,4]oxazine hydrochloride]	> 10
Cl.Fc1ccc(-c2nnn3c2CO[C@@H]2CN(CCC4CCOCC4)C[C@H]23)c(F)c1 [Example 40, (5aR,8aR)-3-(2,4-difluorophenyl)-7-(2-(tetrahydro-2H-pyran-4-yl)ethyl)-4,5a,6,7,8,8a-hexahydropyrrolo[3,4-b][1,2,3]triazolo[1,5-d][1,4]oxazine hydrochloride]	> 10
COc1ccc(-c2nnn3c2CO[C@H]2CN(Cc4ccccc4)C[C@@H]23)cc1 [reference compound]	2.1 (≈ 0.761 µg/mL)
Fc1ccc(CN2C[C@@H]3[C@@H](C2)OCc2c(-c4ccc(F)cc4F)nnn23)cc1 [reference compound]	2.13 (≈ 0.823 µg/mL)
